Data as given in US10772929B2, “Use of peptide compounds in treating acute pancreatitis” (SHENZHEN HIGHTIDE BIOPHARMACEUTICAL, LTD., priority 2017, dated 2020).

Tests used:
[1] = system: sodium taurocholate-induced severe acute pancreatitis (SAP) rat model; experiment: Sodium taurocholate-induced severe acute pancreatitis (SAP) rat model; type: in vivo; details: SAP rats; for Survival Rate: 3-day experiment; for Survival rate of model animals versus model control (in words): all three doses (0.05, 0.25, 1.25 mg/kg); for Pathological score: Area of necrosis / Pathological score: Edema / Pathological score: Hemorrhage / Pathological score: Inflammation: Schmidt's scoring standard 0-4; for Pathological score: Total damage: sum of the four items
Text: After at least 7 days of accumulation period, 60 female and 70 male Sprague-Dawley (SD) rats were included in the study. Five females and eight males were randomly selected as the control group. Another five females and eight males were randomly selected as the sham group, the abdominal cavity was opened for each of the rats in the sham group, and a cotton swab was used to gently flip the duodenum and pancreas, then the abdominal muscle and skin were sutured after the completion of the operation The remaining animals were assigned to establish the severe acute pancreatitis (SAP) rat model using the method of retrograde injection of sodium taurocholate solution with 35 mg/kg dosage into the biliopancreatic duct. The model animals were randomly divided into 4 groups of 24 rats each (male:female=1:1) on the day after model establishment, which were the model control group (vehicle), and low dose group of peptide 12 (0.05 mg/kg), middle dose group of peptide 12 (0.25 mg/kg) and high dose group of peptide 12 (1.25 mg/kg), peptide 12 was dissolved in saline.
The animals were subcutaneously injected once on the day after the establishment of the model, once on the second day, for a total of 2 consecutive days, and the experimental period was 3 days. During the experiment, the animals were observed by cage, including if there is any animal death or near death, mental state, behavioral activities, fecal characteristics, skin, hair, eyes, ears, nose, abdomen, external genitals, anus, limbs, feet, respiration, etc. At the end of the experiment, all the surviving rats were weighed and blood samples were collected to detect the levels of amylase, calcium and lipase in serum of rats in each group. The general anatomical observation was made, focusing on the status of pancreas, gastrointestinal tract, ascites, bile duct obstruction, pulmonary congestion and saponification spots. The pancreas was preserved in 10% formalin fixative for further pathological analysis.
The severity of pancreatic injury was assessed by preparing HE slices of pancreas and using Schmidt's scoring standard to evaluate the pathological changes of pancreatic edema, inflammation, hemorrhage and necrosis. The total pancreatic injury calculated as the sum of the above four items.

[2] = system: caerulein-induced acute pancreatitis (AP) model; experiment: Caerulein-induced acute pancreatitis (AP) mouse model; type: in vivo, BALB/c mice; details: caerulein AP mice; for Pathological score: Area of necrosis / Pathological score: Edema / Pathological score: Hemorrhage / Pathological score: Inflammation: Schmidt's scoring standard; for Edema of the pancreas versus model group (in words): FIG. 12; for Inflammation of the pancreas versus model group (in words): FIG. 13; for Level of amylase versus model control / Level of lipase versus model control: doses of 0.025, 0.25, 2.5 and 25 mg/kg; for Level of amylase versus model control: FIG. 10, P<0.001; for Level of lipase versus model control: FIG. 11, P<0.001
Method: Male BALB/c mice, aged 6-8 weeks, were accumulated for more than 7 days. After fasting overnight, 10 animals were randomly selected as normal control. The remaining animals were injected with caerulein 50 μg/kg intraperitoneally every 1 hour for 10 times to induce acute pancreatitis, and they were randomly divided into model control group and peptide 12 treatment groups with the dosage of 0.025, 0.25, 2.5 and 25 mg/kg respectively, there were 10 mice in each group. Mice were given corresponding doses of peptide 12 or normal saline 5 minutes before the fourth injection of caerulein.
The experiment was finished one hour after the 10th injection of caerulein, blood samples were collected for the determination of amylase and lipase levels. Pancreas were weighed and fixed in 10% formalin solution for subsequent pathological analysis.
The pancreatic index was calculated as pancreatic weight/body weight, which reflected the severity of pancreatic edema. The statistical results were shown in FIG. 9, in which ### means P<0.001 compared with the normal control group; ** means P<0.01 compared with the model control group, *** means P<0.001 compared with the model control group. […] It should be noted that in FIG. 10, ### means P<0.001 compared with the normal control group; *** means P<0.001 compared with the model control group; in FIG. 11, ### means P<0.001 compared with the normal control group; *** means P<0.001 compared with the model control group.
The severity of pancreatic injury was assessed by preparing HE slices of pancreas and using Schmidt's scoring standard to evaluate the pathological changes of pancreatic edema, inflammation, hemorrhage and necrosis.

[3] = listed as Ac-IGLHD PSHGT LPAGS-OH

## Ac-IGLHDPSHGTLPAGS-OH [Peptide 12]
[1]; 0.05 mg/kg
  Ratio (treatment group/model group) of survival: 1.11
[1]; 0.05 mg/kg subcutaneous once daily for 2 days
  Survival Rate: 41.7%
[1]; 0.25 mg/kg
  Ratio (treatment group/model group) of survival: 1.33
[1]; 0.25 mg/kg subcutaneous once daily for 2 days
  Survival Rate: 50.0%
[1]; 1.25 mg/kg
  Ratio (treatment group/model group) of survival: 1.78
[1]; 1.25 mg/kg subcutaneous once daily for 2 days, 1.25 mg/kg
  Survival Rate: 66.7%
[1]; FIG. 4 to FIG. 8, dose-dependent
  Pathological changes of pancreas caused by sodium taurocholate: reduce
[1]; [3]
  Survival rate of model animals versus model control (in words): significantly increase
[1]; listed as peptide 12
  Survival rate of model animals versus model control (in words): improved
[1]; high dose (1.25 mg/kg)
  Pathological score: Area of necrosis: 1.13 ± 0.85
  Pathological score: Edema: 1.21 ± 0.96
  Pathological score: Hemorrhage: 1.15 ± 0.83
  Pathological score: Inflammation: 2.67 ± 1.00
  Pathological score: Total damage: 6.15 ± 2.69
[1]; low dose (0.05 mg/kg)
  Pathological score: Area of necrosis: 1.63 ± 0.74
  Pathological score: Edema: 1.33 ± 0.86
  Pathological score: Hemorrhage: 1.73 ± 0.89
  Pathological score: Inflammation: 2.90 ± 1.22
  Pathological score: Total damage: 7.60 ± 3.07
[1]; middle dose (0.25 mg/kg)
  Pathological score: Area of necrosis: 1.11 ± 0.78
  Pathological score: Edema: 1.44 ± 0.87
  Pathological score: Hemorrhage: 1.31 ± 0.87
  Pathological score: Inflammation: 2.83 ± 0.93
  Pathological score: Total damage: 6.69 ± 2.53
[1]; treatment groups 0.05, 0.25, 1.25 mg/kg
  Mental state and activity state of the surviving animals versus model control: significantly better
[1]; treatment groups versus control group
  General anatomy of surviving animals (pancreas edema and liquefaction, gastrointestinal obstruction, ascites volume, bile duct obstruction, pulmonary congestion, saponification spots): improved with varying degrees
[1]; treatment groups, FIG. 2
  Level of amylase in blood versus model control: decreased
[1]; treatment groups, FIG. 3
  Level of lipase in blood versus model control: decreased
[2]; 0.025 mg/kg
  Pathological score: Area of necrosis: 0.00 ± 0.00
  Pathological score: Edema: 1.50 ± 0.84
  Pathological score: Hemorrhage: 0.00 ± 0.00
  Pathological score: Inflammation: 1.33 ± 0.52
[2]; 0.25 mg/kg
  Pathological score: Area of necrosis: 0.00 ± 0.00
  Pathological score: Edema: 1.67 ± 0.82
  Pathological score: Hemorrhage: 0.00 ± 0.00
  Pathological score: Inflammation: 1.17 ± 0.75
[2]; 2.5 mg/kg
  Pathological score: Area of necrosis: 0.00 ± 0.00
  Pathological score: Edema: 1.17 ± 1.17
  Pathological score: Hemorrhage: 0.00 ± 0.00
  Pathological score: Inflammation: 0.83 ± 0.75
[2]; 25 mg/kg
  Pathological score: Area of necrosis: 0.00 ± 0.00
  Pathological score: Edema: 1.50 ± 0.55
  Pathological score: Hemorrhage: 0.33 ± 0.82
  Pathological score: Inflammation: 2.17 ± 0.75
[2]; [3]
  Edema of the pancreas versus model group (in words): significantly reduced
  Inflammation of the pancreas versus model group (in words): significantly reduced
  Level of amylase versus model control: significantly reduced
  Level of lipase versus model control: significantly reduced
[2]; listed as peptide 12
  Edema of the pancreas versus model group (in words): alleviated
  Inflammation of the pancreas versus model group (in words): alleviated
[2]
  Level of amylase versus model control: significantly lowered
  Level of lipase versus model control: significantly lowered
[2]; doses of 0.025, 0.25 and 2.5 mg/kg, dose dependent, FIG. 9
  Pancreatic index (pancreatic weight/body weight) versus model control: significantly decreased
